# According to patent US20100119494A1, “METHODS AND COMPOSITIONS RELATED TO MODULATING THE EXTRACELLULAR STEM CELL ENVIRONMENT” (Massachusetts Institute of Technology, priority 2005, published 2010):
# What was measured:
# Assay type in all cases: cell-based, mouse
# ES cells = assay: Optimization of culture conditions for differentiation of ES cells into endothelial cells (marker expression); details: 15% FBS present, LIF absent
# Method: Mouse embryonic stem cells (J1) (gift from Bevin Engelward, Mass. Institute of Technology, Cambridge, Mass.) were grown in DMEM with 2 mM L-glutamine (GIBCO, Carlsbad, Calif.) adjusted to contain 100 mM sodium pyruvate, 10 mM nonessential amino acids and 1.5 g/L sodium bicarbonate, with 15% fetal bovine serum (Hyclone, South Logan, Utah) and supplemented with 100 units/mL penicillin G (Sigma, St. Louis, Mo.), 100 μg/mL streptomycin sulfate (Sigma), 30 mM beta-mercaptoethanol (Sigma) and 1000 units/ml murine leukemia inhibitory factor, LIF (Chemicon, Temecula, Calif.). The cells were plated in 10 cm^2 cell culture dishes, coated with 0.1% gelatin B (Sigma) and grown at 37° C. in a 5% CO2 humidifier incubator. The culture medium was changed every 2 days. The cells were subcultured at a split ratio of 1:10 when they reached 80% to 90% confluency, using a 0.25% trypsin-EDTA solution (Sigma). To induce formation of embryoid bodies and differentiation into endothelial cells, J1 cells were plated at a density of 1.25×10^5 cells/100 mm dish, or 3×10^4 cells/6 wells and cultured in the absence of LIF. Fresh media was replenished every 2 days.
# To optimize the conditions for efficient differentiation of ES cells into endothelial cells in vitro, the expression levels of ES cell specific and endothelial cell specific markers were analyzed at different stages of differentiation under different cell culture conditions. Specifically, the effects of cell density, the ECM content (i.e., gelatin, collagen, laminin, matrigel), exogenous addition of growth factors (i.e., VEGF, FGF, HGF and insulin) and different types of serum (i.e., Sigma fetal bovine serum (FBS) and Hyclone FBS) were tested.
# [1] = system: phosphorylation of ERK1/2 (MAPK pathway); assay: Western blot of phospho-ERK normalized to total ERK1/2 in differentiating ES cells; details: exogenous heparin added to treated cells
# Method: (§1) Heparinase III (Hep-III) was prepared as described previously (Godavarti, R., et al. (1996) Biochemistry 35, 6846-52). Heparinase I (Hep-I) was a generous gift of Momenta Pharmaceuticals (Cambridge, Mass.). Sodium chlorate and heparin were purchased from Sigma and Cambrex BioWhittaker (East Rutherford, N.J.), respectively. To enzymatically modify the HSGAG glycome signature of the cells, cells were washed with phosphate buffer saline (PBS) and incubated with Hep-I or Hep-III for 30 minutes every day at 37° C. in serum free DMEM. Digested HSGAG residues were removed by washing the cells, and cells were then fed with fresh media. In an additional experiment, cells were cultured with medium containing sodium chlorate, which blocks the sulfation of HSGAGs. In a reversal experiment, heparin was added to the culture to overcome the chlorate induced synthetic block. Treated cells were analyzed for differentiation into endothelial cells between day 3 and day 15. Hep-III was added to the cells at a concentration of 2.5 μg/mL, Hep-I was added at a concentration of 1.5 μg/mL, sodium chlorate at 10 mM and heparin (20 μg). The concentrations of enzymes were optimized to exhaustively cleave all cell surface HSGAGs in the given period of time. All enzymes and chemicals were diluted in serum free DMEM.
# For elucidating the biochemical pathways involved downstream of the modulation of the cell surface sugars, protein contents of the embryoid bodies were solubilized by rapid mixing with 3× SDS sample buffer under reducing conditions. Equivalent amounts of protein per sample were electrophoretically resolved on 4-12% gradient polyacrylamide gels and transferred onto a nitrocellulose (0.22 μm) membrane. The membrane was subsequently probed with a phosphor-ERK antibody (1:800 dilution, Cell Signaling Technologies, Danvers, Mass.), which specifically detects the phosphorylated forms of ERK1 and 2. The signal was amplified using a 1:2000 dilution of the appropriate horseradish peroxidase-conjugated secondary antibody (BioRad, Hercules, Calif.), and the immunocomplexes were visualized using enhanced chemiluminescence detection (Amersham Life Science, Piscataway, N.J.). The signal was normalized to the expression of total ERK1/2, which was detected on the same blot using ERK1/2 specific antibodies (Santa Cruz, Santa Cruz, Calif., used at a 1:200 dilution). Quantification of the luminescence signal was carried out by a Kodak 2000R imager.
# The MAPK pathway is the downstream convergence point of the signaling of several angiogenic factors such as VEGF, FGF, HGF, EGF, PDGF and angiopoietins (Sengupta, S., et al. (2003) Arterioscler Thromb Vasc Biol 23, 69-75). […]
# [2] = system: differentiating ES cells (J1); assay: Confocal microscopy of vWF and Oct-4 staining in differentiating ES cells; details: heparin added to sodium chlorate treated ES cells during differentiation; FIG. 15C
# Method: (§2) Mouse embryonic stem cells (J1) (gift from Bevin Engelward, Mass. Institute of Technology, Cambridge, Mass.) were grown in DMEM with 2 mM L-glutamine (GIBCO, Carlsbad, Calif.) adjusted to contain […] sodium pyruvate, 10 mM nonessential amino acids and 1.5 g/L sodium bicarbonate, with 15% fetal bovine serum (Hyclone, South Logan, Utah) and supplemented with 100 units/mL penicillin G (Sigma, St. Louis, Mo.), 100 μg/mL streptomycin sulfate (Sigma), 30 mM beta-mercaptoethanol (Sigma) and 1000 units/ml murine leukemia inhibitory factor, LIF (Chemicon, Temecula, Calif.). The cells were plated in 10 cm^2 cell culture dishes, coated with 0.1% gelatin B (Sigma) and grown at 37° C. in a 5% CO2 humidifier incubator. The culture medium was changed every 2 days. The cells were subcultured at a split ratio of 1:10 when they reached 80% to 90% confluency, using a 0.25% trypsin-EDTA solution (Sigma). To induce formation of embryoid bodies and differentiation into endothelial cells, J1 cells were plated at a density of 1.25×10^5 cells/100 mm dish, or 3×10^4 cells/6 wells and cultured in the absence of LIF. Fresh media was replenished every 2 days.
# as §1
# For microscopic analysis of endothelial cells, the differentiating J1 cells were fixed in cold methanol at designated time points, blocked in goat serum and probed overnight with a rabbit primary antibody against vWF, an endothelial cell marker, or Oct-4, a stem cell marker. The sections were washed and re-probed with a goat secondary antibody coupled to FITC. The nuclei were counterstained with propidium iodide. Images were captured using a […] LSM510 confocal microscope at a 512×512 pixels resolution (Leica, Bannockburn, Ill.). Fluorochromes were excited with 488 nm and 543 nm laser lines, and the images were captured using 505-530 BP and 565-615 BP filters at a 512×512 pixels resolution.
# To dissect the role of HSGAG structure in ES cell differentiation, the cell surface and extracellular HSGAG moieties of differentiating ES cells were modified using an enzymatic and pharmacological approach. Specifically, differentiating ES cells were incubated with Hep-I or Hep-III for 30 minutes every day to cleave the cell surface and extracellular matrix (ECM) HSGAGs at structurally distinct sites, or cultured in media supplemented with sodium chlorate, which is a pharmacological inhibitor of HSGAG biosynthesis (Safaiyan, F., et al. (1999) J Biol Chem 274, 36267-73). Hep-I cleaves HSGAGs at highly sulfated regions, and Hep-III cleaves HSGAGs at undersulfated regions (Linhardt, R. J., et al. (1990) Biochemistry 29, 2611-7; Godavarti, R., and Sasisekharan, R. (1996) Biochem Biophys Res Commun 229, 770-7). […]
# [3] = system: differentiating ES cells (J1); assay: Real-time PCR of Oct-4, VEGF-R2, VE-cadherin and eNOS transcripts in differentiating ES cells; details: heparin added to sodium chlorate treated ES cells
# Method: as §2, §1
# RNA was isolated from J1 cells using TRIzol (Invitrogen, Carlsbad, Calif.) and RNAlater (Qiagen, Valencia, Calif.) according to the manufacturer's protocol. Single-stranded cDNA was generated via oligo-dT primed reverse transcription, and genes serving as markers for differentiation were quantified using an Abi Prism 7700 real-time PCR thermocycler (Applied Biosystems, Foster City, Calif.). Expression levels were obtained for the marker genes Oct-4, VE-cadherin, VEGF-R2, and eNOS, with β-actin used as a control. PCR conditions involved denaturation for 10 min at 95° C., followed by 40 cycles of denaturation for 20 sec at 94° C., and annealing and extension for 1 min at 60° C. cDNA isolated from J1 cells and primers for the described genes were mixed with SYBR Green PCR Mastermix (Applied Biosystems) for real-time quantification according to the manufacturers instructions. Primers used were 5′-[…]-3′ (SEQ ID NO: 1) and 5′-[…]-3′ (SEQ ID NO: 2) for Oct-4; 5′-[…]-3′ (SEQ ID NO: 3) and 5′-[…]-3′ (SEQ ID NO: 4) for VE-cadherin; 5′-[…]-3′ (SEQ ID NO: 5) and 5′-[…]-3′ (SEQ ID NO: 6) for TIE-2; 5′-[…]-3′ (SEQ ID NO: 7) and 5′-[…]-3′ (SEQ ID NO: 8) for VEGF-R2; 5′-[…]-3′ (SEQ ID NO: 9) and 5% […]-3′ (SEQ ID NO: 10) for ENOS; 5′-[…]-'3 (SEQ ID NO: 11) and 5′-[…]-'3 (SEQ ID NO: 12) for 13-actin. The sulfotransferase primers and conditions were chosen. […]
substance,measurement,setting,value
HGF: growth factor added exogenously to the culture,effect of exogenous addition of growth factors on differentiation into endothelial cells,ES cells,No effects
VEGF,effect of exogenous addition of growth factors on differentiation into endothelial cells,ES cells,No effects
heparin [reference compound],"phosphorylation of ERK1/2, reversal of inhibition",[1],inhibition is reversed
same,"vWF staining (confocal microscopy), reconstitution",[2],increased vWF staining
same,"VE-cadherin transcript levels, reconstitution",[3],increased
same,"eNOS transcript levels, reconstitution",[3],increased
insulin: listed among growth factors added exogenously to the culture,effect of exogenous addition of growth factors on differentiation into endothelial cells,ES cells,No effects
